{"source": "patent US11771086B2", "about": "“Pest control composition including novel iminopyridine derivative” (priority 2012, dated 2023)", "key": {"Plutella xylostella": {"system": "Plutella xylostella", "assay": "whole plant or invertebrate", "assay_type": "in vivo", "details": "for Theoretical value by Colby's equation: Plutella xylostella; for Mortality of single agent against Plutella xylostella: cabbage leaf disk spray, three days", "description": "After an air drying process, second instar larvae were released thereto. […] The test was performed in duplicate.\n(§1) Method for Judging Synergistic Effects"}, "Aphis gossypii": {"system": "Aphis gossypii", "assay": "whole plant or invertebrate", "assay_type": "in vivo", "description": "The test was performed in duplicate.\nas §1"}, "Spodoptera litura": {"system": "Spodoptera litura", "assay": "whole plant or invertebrate", "assay_type": "in vivo", "details": "for Theoretical value by Colby's equation: Spodoptera litura; for Mortality of single agent against Spodoptera litura: cabbage leaf disk spray, three days", "description": "After an air drying process, third instar larvae were released thereto. […] The test was performed in duplicate.\nas §1"}, "rice blast": {"system": "rice blast", "assay_type": "in vivo", "details": "single agent 0.5 ppm; foliar application; fourteen days after inoculation"}, "Rhizoctonia solani": {"system": "Rhizoctonia solani", "assay": "Test Example 12 Test of control of rice sheath blight (Rhizoctonia solani)", "assay_type": "in vivo", "details": "single agent 5 ppm; foliar spray; six days after inoculation"}, "Laodelphax striatellus": {"system": "Laodelphax striatellus", "assay": "Test Example 14 Test with Laodelphax striatellus by soil irrigation treatment (mixture with paddy herbicide)", "assay_type": "in vivo", "details": "single agent 0.05 mg/seedling, five days after release", "description": "After standing for three days, second instar larvae were released thereto. […] The test was performed in duplicate."}, "Laodelphax striatella": {"system": "Laodelphax striatella", "assay": "whole plant or invertebrate", "details": "for Theoretical value by Colby's equation: Laodelphax striatella soil irrigation, single agent 0.5 mg/Seedling (other component 0); for Mortality of single agent against Laodelphax striatella: single agent 0.5 mg/Seedling, soil irrigation", "description": "After the rice seedling was left to stand for 3 days, second instar larvae were released thereto. Thereafter, the larvae were left to stand in a thermostatic chamber (16 hours of light period-8 hours of dark period) at 25° C. […] The test was performed in duplicate. Mortality of larvae (%)={number of dead larvae/(number of survived larvae+number of dead larvae)}×100\nB: 100−(mortality of larvae or adults when treated only with each of imidacloprid, fipronil, chlorantraniliprole, spinosad, clothianidin, dinotefuran, sulfoxaflor, pymetrozine, thiamethoxam, flupyradifurone and cycloxaprid))\nas §1\nWhen the mortality against Laodelphax striatella in the case of a mixture with another agent exceeded the theoretical value by the Colby's equation, a synergistic effect was judged to be present."}, "Chilo suppressalis": {"system": "Chilo suppressalis", "assay_type": "in vivo", "description": "After standing for 3 days, second instar larvae were released thereto. […] The test was performed in duplicate.\nas §1"}, "Naranga aenescens": {"system": "Naranga aenescens", "assay_type": "in vivo", "description": "After standing for 3 days, first instar larvae were released thereto. […] The test was performed in duplicate.\nas §1"}, "[1]": {"details": "single agent 5 ppm (other component 0)"}, "[2]": {"details": "single agent 10 ppm (other component 0)"}}}
{"compound": "C[C@]1(COC(=O)C2CC2)[C@@H]2C[C@H](O)[C@@]3(C)Oc4cc(-c5cccnc5)oc(=O)c4[C@H](O)[C@@H]3[C@@]2(C)CC[C@@H]1OC(=O)C1CC1", "note": "[Afidopyropen]", "values": [{"measurement": "Theoretical value by Colby's equation", "setting": "Plutella xylostella; [1]", "value": 0, "unit": "%"}, {"measurement": "Theoretical value by Colby's equation", "setting": "Plutella xylostella; [2]", "value": 20, "unit": "%"}, {"measurement": "Mortality of single agent against Plutella xylostella", "setting": "Plutella xylostella; single agent 5 ppm", "value": 0, "unit": "%"}, {"measurement": "Mortality of single agent against Plutella xylostella", "setting": "Plutella xylostella; single agent 10 ppm", "value": 20, "unit": "%"}, {"measurement": "Theoretical value by Colby's equation", "setting": "Aphis gossypii; Aphis gossypii, single agent 0.002 ppm (other component 0)", "value": 25, "unit": "%"}, {"measurement": "Mortality of single agent against Aphis gossypii", "setting": "Aphis gossypii; single agent 0.002 ppm, cucumber leaf disk spray, three days", "value": 25, "unit": "%"}, {"measurement": "Theoretical value by Colby's equation", "setting": "Spodoptera litura; [1]", "value": 0, "unit": "%"}, {"measurement": "Theoretical value by Colby's equation", "setting": "Spodoptera litura; [2]", "value": 0, "unit": "%"}, {"measurement": "Mortality of single agent against Spodoptera litura", "setting": "Spodoptera litura; single agent 5 ppm", "value": 0, "unit": "%"}, {"measurement": "Mortality of single agent against Spodoptera litura", "setting": "Spodoptera litura; single agent 10 ppm", "value": 0, "unit": "%"}]}
{"compound": "CO/C=C(/C(=O)OC)c1ccccc1Oc1cc(Oc2ccccc2C#N)ncn1", "note": "[Azoxystrobin]", "values": [{"measurement": "Preventive value (Rice blast test, number of lesions)", "setting": "rice blast", "value": 37}, {"measurement": "Preventive value (Sheath blight test, lesion height)", "setting": "Rhizoctonia solani", "value": 95}]}
{"compound": "CCN(CC)C(=O)n1cnc(S(=O)(=O)c2c(C)cc(C)cc2C)n1", "note": "[Cafenstrole]", "values": [{"measurement": "Mortality of larvae (Laodelphax striatellus)", "setting": "Laodelphax striatellus", "value": 0, "unit": "%"}]}
{"compound": "CCCCOC(=O)[C@@H](C)Oc1ccc(Oc2ccc(C#N)cc2F)cc1", "note": "[Cyhalofop-butyl]", "values": [{"measurement": "Mortality of larvae (Laodelphax striatellus)", "setting": "Laodelphax striatellus", "value": 0, "unit": "%"}]}
{"compound": "Cc1ccc(NC(=O)NC(C)(C)c2ccccc2)cc1", "note": "[Daimuron]", "values": [{"measurement": "Mortality of larvae (Laodelphax striatellus)", "setting": "Laodelphax striatellus", "value": 0, "unit": "%"}]}
{"compound": "CNC(=O)/C(=N/OC)c1ccccc1CO/N=C(C)/C(=N/OC)C(/C)=N/OC", "note": "[Orysastrobin]", "values": [{"measurement": "Theoretical value by Colby's equation", "setting": "Laodelphax striatella", "value": 4, "unit": "%"}, {"measurement": "Mortality of single agent against Laodelphax striatella", "setting": "Laodelphax striatella", "value": 4, "unit": "%"}, {"measurement": "Preventive value (Rice blast test, number of lesions)", "setting": "rice blast", "value": 20}, {"measurement": "Preventive value (Sheath blight test, lesion height)", "setting": "Rhizoctonia solani", "value": 72}]}
{"compound": "OCC1=C[C@H](N[C@H]2C[C@H](CO)[C@@H](O[C@@H]3O[C@H](CO)[C@@H](O)[C@H](O)[C@H]3O)[C@H](O)[C@H]2O)[C@H](O)[C@@H](O)[C@@H]1O", "note": "[Validamycin]", "values": [{"measurement": "Preventive value (Sheath blight test, lesion height)", "setting": "Rhizoctonia solani", "value": 32}]}
{"compound": "Spinosad", "values": [{"measurement": "Theoretical value by Colby's equation", "setting": "Laodelphax striatella", "value": 0, "unit": "%"}, {"measurement": "Mortality of single agent against Laodelphax striatella", "setting": "Laodelphax striatella", "value": 0, "unit": "%"}, {"measurement": "Theoretical value by Colby's equation", "setting": "Plutella xylostella; single agent 0.01 ppm (other component 0)", "value": 11, "unit": "%"}, {"measurement": "Mortality of single agent against Plutella xylostella", "setting": "Plutella xylostella; single agent 0.01 ppm", "value": 11, "unit": "%"}, {"measurement": "Theoretical value by Colby's equation", "setting": "Chilo suppressalis; Chilo suppressalis, single agent 0.002 mg/seedling (other component 0)", "value": 80, "unit": "%"}, {"measurement": "Mortality of single agent against Chilo suppressalis", "setting": "Chilo suppressalis; single agent 0.002 mg/seedling, soil irrigation, six days after release", "value": 80, "unit": "%"}, {"measurement": "Theoretical value by Colby's equation", "setting": "Naranga aenescens; Naranga aenescens, single agent 0.005 mg/seedling (other component 0)", "value": 40, "unit": "%"}, {"measurement": "Mortality of single agent against Naranga aenescens", "setting": "Naranga aenescens; single agent 0.005 mg/seedling, soil irrigation, five days after release", "value": 40, "unit": "%"}]}
